According to patent US20220380338A1, “CYCLOALKYL 3-OXOPIPERAZINE CARBOXAMIDES AND CYCLOHETEROALKYL 3-OXOPIPERAZINE CARBOXAMIDES AS NAV1.8 INHIBITORS” (Merck Sharp & Dohme LLC, priority 2021, published 2022):

These compounds were tested against T1, human NaV1.8 (Homo sapiens, UniProt Q9Y5Y9) (assay: Nav1.8 Qube® Assay (automated 384-well patch-clamp, inhibition of sodium current)). Conditions: human NaV1.8 channels stably expressed in HEK 293 cells, room temperature.
T1 construct: expressed in transfected cells
Assay type: cell-based
Procedure: Compounds were tested on human NaV1.8 and NaV1.5 channels stably expressed in human embryo kidney (HEK) 293 cells. Sodium current measurements on Qube® were conducted as follows: automated 384-well patch-clamp assays on the Qube® platform (Sophion Biosciences) were used to measure the inhibition of sodium flow through human NaV1.8 and NaV1.5 channels. Whole-cell voltage-clamp recordings were performed in QChips® (Sophion Biosciences) at room temperature. NaV1.8 current measurements on Qube® were obtained as follows: NaV1.8 currents were elicited with a 10 second 1 Hertz (Hz) pulse train from a holding potential of −90 millivolts (mV), delivered to the cells once per minute in the control condition (DMSO only) and after compound addition. The 1 hertz pulse train stimulation consisted of ten test pulses to 10 millivolt (mV) for 20 milliseconds (ms), each of which was followed by a 980 millisecond repolarization to −67 millivolts. At the end of the 10 second pulse train stimulation, a 5 second hyperpolarization step to −100 millivolt (mV) was used to recover NaV1.8 from fast inactivation. The peak currents elicited by the 1st and 10th test pulses were used to determine IC50 values for resting inhibition and inactivated state inhibition. NaV1.5 current measurements on Qube® were obtained as follows: NaV1.5 currents were elicited with a 20 second 3 Hertz pulse train in the control condition (DMSO only) and after compound addition. The pulse train consisted of sixty 20 millisecond test pulses to 0 millivolt from a holding potential of −80 millivolt (mV). The average peak currents elicited by the last 3 test pulses were used to determine IC50 values for NaV1.5 inhibition.
The following buffers were used for the Qube® recordings: External buffer for NaV1.8 Qube® recording: 150 NaCl, 2 CaCl2, 5 KCl, 1 Mg Cl2, 10 HEPES, 12 Dextrose; External buffer for Qube® NaV1.5 recording: 120 N-Methyl-D-Glucamine, 40 NaCl, 1 KCl, 2.7 CaCl2, 5 HEPES, 0.5 MgCl2; and Internal buffer for Qube® recording: 120 CsF, 30 CsCl, 10 EGTA, 5 HEPES, 5 NaF, 2 MgCl2.
For all Qube® experiments offline analysis was used to determine percent inhibition as a function of drug concentration. IC50 values were determined by fitting to the Hill equation.

T1 sequence (Q9Y5Y9 whole entry): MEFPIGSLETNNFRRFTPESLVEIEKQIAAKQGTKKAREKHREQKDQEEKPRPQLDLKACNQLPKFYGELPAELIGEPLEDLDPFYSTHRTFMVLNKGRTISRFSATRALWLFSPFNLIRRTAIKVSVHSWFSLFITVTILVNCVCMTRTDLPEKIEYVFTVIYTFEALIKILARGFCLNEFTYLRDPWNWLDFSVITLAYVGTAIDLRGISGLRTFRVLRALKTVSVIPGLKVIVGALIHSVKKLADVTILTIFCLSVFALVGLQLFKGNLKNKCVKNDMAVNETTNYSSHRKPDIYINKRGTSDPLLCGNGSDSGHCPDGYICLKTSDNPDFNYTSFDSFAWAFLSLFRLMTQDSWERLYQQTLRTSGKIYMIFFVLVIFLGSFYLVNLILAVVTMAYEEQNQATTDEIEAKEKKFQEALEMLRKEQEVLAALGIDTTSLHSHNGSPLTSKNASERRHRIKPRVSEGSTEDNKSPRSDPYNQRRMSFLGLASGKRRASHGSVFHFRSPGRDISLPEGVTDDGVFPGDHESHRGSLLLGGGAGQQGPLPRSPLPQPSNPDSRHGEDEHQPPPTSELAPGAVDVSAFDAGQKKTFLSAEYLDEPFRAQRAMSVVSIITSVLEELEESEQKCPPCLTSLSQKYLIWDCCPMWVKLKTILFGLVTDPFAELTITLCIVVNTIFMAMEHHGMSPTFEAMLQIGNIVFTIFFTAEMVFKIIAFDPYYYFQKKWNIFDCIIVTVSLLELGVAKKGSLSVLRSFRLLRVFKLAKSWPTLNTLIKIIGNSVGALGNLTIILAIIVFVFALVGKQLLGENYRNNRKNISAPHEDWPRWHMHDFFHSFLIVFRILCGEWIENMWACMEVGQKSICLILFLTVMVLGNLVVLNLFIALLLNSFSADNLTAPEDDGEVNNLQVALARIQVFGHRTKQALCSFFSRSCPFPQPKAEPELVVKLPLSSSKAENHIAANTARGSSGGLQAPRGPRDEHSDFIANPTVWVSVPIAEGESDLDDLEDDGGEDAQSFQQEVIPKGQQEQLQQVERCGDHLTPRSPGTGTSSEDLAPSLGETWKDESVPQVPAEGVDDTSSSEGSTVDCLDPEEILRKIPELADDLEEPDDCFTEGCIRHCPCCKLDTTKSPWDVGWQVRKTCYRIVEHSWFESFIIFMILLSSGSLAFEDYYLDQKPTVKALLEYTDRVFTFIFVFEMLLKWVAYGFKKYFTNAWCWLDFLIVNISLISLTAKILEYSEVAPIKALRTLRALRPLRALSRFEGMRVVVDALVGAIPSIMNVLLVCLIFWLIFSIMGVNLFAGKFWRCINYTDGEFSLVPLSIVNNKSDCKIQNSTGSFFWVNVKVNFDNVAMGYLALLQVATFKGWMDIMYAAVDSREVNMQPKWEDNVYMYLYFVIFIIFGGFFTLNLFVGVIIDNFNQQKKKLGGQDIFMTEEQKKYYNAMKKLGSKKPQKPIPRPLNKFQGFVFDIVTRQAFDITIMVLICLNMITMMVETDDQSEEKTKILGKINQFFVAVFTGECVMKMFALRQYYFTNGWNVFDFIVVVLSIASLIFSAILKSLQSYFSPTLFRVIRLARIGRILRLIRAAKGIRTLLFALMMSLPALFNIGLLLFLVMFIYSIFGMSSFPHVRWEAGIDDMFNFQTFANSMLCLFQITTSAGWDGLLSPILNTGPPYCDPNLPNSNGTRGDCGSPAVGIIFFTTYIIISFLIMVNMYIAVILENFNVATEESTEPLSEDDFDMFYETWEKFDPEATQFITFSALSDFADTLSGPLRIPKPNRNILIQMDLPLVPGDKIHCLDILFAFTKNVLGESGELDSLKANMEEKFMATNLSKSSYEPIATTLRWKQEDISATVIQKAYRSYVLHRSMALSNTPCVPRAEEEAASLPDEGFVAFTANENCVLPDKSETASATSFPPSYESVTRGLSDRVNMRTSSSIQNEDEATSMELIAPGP

C[C@@H]1C(=O)NCCN1C(=O)NC(c1ccc(F)c(Cl)c1F)C1CC(C(F)(F)F)C1 (single isomer, unassigned) [Example 20C] and C[C@@H]1C(=O)NCCN1C(=O)NC(c1ccc(F)c(Cl)c1F)C1CCC(C(F)(F)F)C1 (single isomer, unassigned) [Example 58A, (2R)—N—((R or S)-(3-chloro-2,4-difluorophenyl)(cis-3-(trifluoromethyl)cyclopentyl)methyl)-2-methyl-3-oxopiperazine-1-carboxamide] are within 1.5-fold of each other in IC50: 9.02 nM for the first, 9.23 nM for the second.

C[C@@H]1C(=O)NCCN1C(=O)NC(c1ccc(F)c(Cl)c1F)C1CCC(F)(F)C1 (single isomer, unassigned) [Example 42C, (2R)-N-((S or R)-(3-chloro-2,4-difluoro-phenyl)((R or S)-(3,3-difluorocyclopentyl)-methyl)-2-methyl-3-oxopiperazine-1-carboxamide] and C[C@@H]1C(=O)NCCN1C(=O)NC(c1ccc(F)c(Cl)c1F)C1CC(F)(F)C1 (single isomer, unassigned) [Example 24B, (2R)-N-((S or R)-(3-chloro-2,4-difluoro-phenyl)(3,3-difluoro-cyclobutyl)methyl)-2-methyl-3-oxopiperazine-1-carboxamide] are within 1.5-fold of each other in IC50: 24.1 nM for the first, 29.1 nM for the second.

First: COC1CC(C(NC(=O)N2CCNC(=O)[C@H]2C)c2ccc(F)c(Cl)c2F)C1 (single isomer, unassigned) [Example 40D, (2R)-N-((S or R)-(3-chloro-2,4-difluoro-phenyl)(trans-3-methoxycyclobutyl)-methyl)-2-methyl-3-oxopiperazine-1-carboxamide]
Second: C[C@@H]1C(=O)NCCN1C(=O)NC(c1ccc(F)c(Cl)c1F)C1CC(C2CC2)C1 (single isomer, unassigned) [Example 21B, (2R)-N-((R or S)-(3-chloro-2,4-difluoro-phenyl)(cis or trans-3-cyclopropylcyclobutyl)methyl)-2-methyl-3-oxopiperazine-1-carboxamide]
The IC50 of the first is 38-fold higher: 108 nM for the first, 2.87 nM for the second.

Compared with C[C@@H]1C(=O)NCCN1C(=O)NC(c1ccc(F)c(Cl)c1)C1CC(OC(F)F)C1 (single isomer, unassigned) [Example 38A, (2R)-N-((R or S)-(3-chloro-4-fluoro-phenyl)-(trans-3-(difluoro-methoxy)cyclobutyl)-methyl)-2-methyl-3-oxopiperazine-1-carboxamide], C[C@@H]1C(=O)NCCN1C(=O)NC(c1ccc(F)c(Cl)c1)C1CC(OCC(F)(F)F)C1 (single isomer, unassigned) [Example 44D, (2R)—N—((S or R)-(3-chloro-4-fluorophenyl)(trans-3-(2,2,2-trifluoroethoxy)cyclobutyl)methyl)-2-methyl-3-oxopiperazine-1-carboxamide] is 6.4-fold lower in IC50: 146 nM for the first, 22.7 nM for the second.

First: O=C1NCCN(C(=O)N[C@H](c2ccc(F)c(Cl)c2F)[C@H]2C[C@H](C(F)(F)F)C2)C1C1CC1 (single isomer, unassigned) [Example 27B, (S or R)—N—((S)-(3-chloro-2,4-difluorophenyl)(trans-3-(trifluoromethyl)cyclobutyl)methyl)-2-cyclopropyl-3-oxopiperazine-1-carboxamide]
Second: C[C@@H]1C(=O)NCCN1C(=O)NC(c1ccc(F)c(Cl)c1F)[C@@H]1C[C@@H]2[C@H](C1)C2(F)F (single isomer, unassigned) [Example 11B, (R)-N-((S or R)-(3-chloro-2,4-difluoro-phenyl)((1R,3s,5S)-6,6-difluoro-bicyclo[3.1.0]hexan-3-yl)methyl)-2-methyl-3-oxo-piperazine-1-carboxamide]
The IC50 of the first is 26-fold higher: 107 nM for the first, 4.14 nM for the second.

First: Cc1cc(C(NC(=O)N2CCNC(=O)[C@H]2C)C2CCC(C(F)(F)F)CC2)ccc1F (single isomer, unassigned) [Example 36D]
Second: C[C@@H]1C(=O)NCCN1C(=O)NC(c1ccc(F)c(F)c1)[C@H]1CC[C@H](C(F)(F)F)CC1 (single isomer, unassigned) [Example 8A, (2R)-N-((R or S)-(3,4-difluoro-phenyl)(trans-4-(trifluoromethyl)cyclo-hexyl)methyl)-2-methyl-3-oxo-piperazine-1-carboxamide]
The IC50 of the first is 61-fold lower: 3.99 nM for the first, 244 nM for the second. The first is the more potent here.

Compared with C[C@@H]1C(=O)NCCN1C(=O)NC(c1ccc(F)c(Cl)c1)C1CC(C(F)(F)F)C1 (single isomer, unassigned) [Example 43C, (2R)-N-((S or R)-(3-chloro-4-fluorophenyl)-(trans-3-(trifluoro-methyl)-cyclobutyl)-methyl)-2-methyl-3-oxopiperazine-1-carboxamide], C[C@@H]1C(=O)NCCN1C(=O)NC(c1ccc(F)c(Cl)c1)C1CC(OCC(F)(F)F)C1 (single isomer, unassigned) [Example 44C, (2R)—N—((R or S)-(3-chloro-4-fluorophenyl)(trans-3-(2,2,2-trifluoroethoxy)cyclobutyl)methyl)-2-methyl-3-oxopiperazine-1-carboxamide] is 54-fold higher in IC50: 3.2 nM for the first, 172 nM for the second.

Going from C[C@@H]1C(=O)NCCN1C(=O)NC(c1ccc(Cl)c(C(F)F)c1)C1CCC(C(F)(F)F)CC1 (single isomer, unassigned) [Example 37A, (2R)-N-((R or S)-(4-chloro-3-(difluoro-methyl)phenyl)(cis-4-(trifluoromethyl)cyclohexyl)methyl)-2-methyl-3-oxopiperazine-1-carboxamide] to Cc1cc(C(NC(=O)N2CCNC(=O)[C@H]2C)C2CCC(C(F)(F)F)CC2)ccc1F (single isomer, unassigned) [Example 36C], the IC50 falls from 108 nM to 58.1 nM (1.9-fold).

Going from C[C@@H]1C(=O)NCCN1C(=O)NC(c1ccc(F)c(Cl)c1F)C1COc2ccccc2C1 (single isomer, unassigned) [Example 62D, (R)—N—((S or R)-(3-chloro-2,4-difluorophenyl)((S or R)-chroman-3-yl)methyl)-2-methyl-3-oxopiperazine-1-carboxamide] to COC1CC(C(NC(=O)N2CCNC(=O)[C@H]2C)c2ccc(F)c(Cl)c2F)C1 (single isomer, unassigned) [Example 40B, (2R)-N-((R or S)-(3-chloro-2,4-difluoro-phenyl)(cis-3-methoxy-cyclobutyl)methyl)-2-methyl-3-oxopiperazine-1-carboxamide], the IC50 rises from 0.8 nM to 14500 nM (18000-fold).

Going from C[C@@H]1C(=O)NCCN1C(=O)NC(c1ccc(F)c(Cl)c1F)C1CCC(F)(F)C1 (single isomer, unassigned) [Example 42B, (2R)-N-((R or S)-(3-chloro-2,4-difluoro-phenyl)((S or R)-3,3-difluorocyclopentyl)-methyl)-2-methyl-3-oxopiperazine-1-carboxamide] to C[C@@H]1C(=O)NCCN1C(=O)NC(c1ccc(F)c(Cl)c1F)C1CC2(C1)CC2(F)F (single isomer, unassigned) [Example 22C, (2R)-N-((S or R)-(3-chloro-2,4-difluoro-phenyl)(trans or cis-1,1-difluoro-spiro[2.3]-hexan-5-yl)methyl)-2-methyl-3-oxopiperazine-1-carboxamide], the IC50 falls from 2830 nM to 84.5 nM (33-fold). The second is the more potent here.

Going from CC(N1CCC(C(NC(=O)N2CCNC(=O)[C@H]2C)c2ccc(F)c(Cl)c2)CC1)C(F)(F)F (single isomer, unassigned) [Example 18C] to C[C@@H]1C(=O)NCCN1C(=O)NC(c1ccc(F)c(Cl)c1)C1CCC2(CC1)CC2(F)F (single isomer, unassigned) [Example 19B], the IC50 falls from 91.6 nM to 3.23 nM (28-fold). The second is the more potent here.

Going from C[C@@H]1C(=O)NCCN1C(=O)NC(c1ccc(F)c(C(F)(F)F)c1)[C@H]1C[C@H](C(F)(F)F)C1 (single isomer, unassigned) [Example 51B, (2R)-N-((S or R)-(4-fluoro-3-(trifluoro-methyl)phenyl)(trans-3-(trifluoro-methyl)-cyclobutyl)methyl)-2-methyl-3-oxopiperazine-1-carboxamide] to C[C@@H]1C(=O)NCCN1C(=O)NC(c1ccc(F)c(Cl)c1)C1CC(OC(F)F)C1 (single isomer, unassigned) [Example 38C, (2R)-N-((S or R)-(3-chloro-4-fluorophenyl) (cis-3-(difluoromethoxy)cyclobutyl)methyl)-2-methyl-3-oxopiperazine-1-carboxamide], the IC50 rises from 3.03 nM to 87.1 nM (29-fold).

Compared with C[C@@H]1C(=O)NCCN1C(=O)NC(c1ccc(F)c(Cl)c1F)C12CC(C(F)(F)F)(C1)C2 (single isomer, unassigned) [Example 30B], C[C@@H]1C(=O)NCCN1C(=O)NC(c1ccc(F)c(Cl)c1F)C1COc2ccccc2C1 (single isomer, unassigned) [Example 62B, (R)—N—((R or S)-(3-chloro-2,4-difluorophenyl)((S or R)-chroman-3-yl)methyl)-2-methyl-3-oxopiperazine-1-carboxamide] is 110-fold higher in IC50: 3.12 nM for the first, 358 nM for the second. The first is the more potent here.

Work on C[C@@H]1C(=O)NCCN1C(=O)NC(c1ccc(F)c(Cl)c1)C1CCC2(CC1)CC2(F)F (single isomer, unassigned) [Example 19C] yielded an IC50 of 15.7 nM.
